# Reference: US8952199B2, “Methods of and formulations for reducing and inhibiting the growth of the concentration of microbes in water-based fluids and systems used with them” (Dow Global Technologies LLC, priority 2007, dated 2015)
# Experiments:
# Format in all cases: cell-based
# [1] = tested on: mixed oil/gas field aerobic bacteria; experiment: Biocidal efficacy against mixed oil/gas field aerobic bacteria in sterile salt solution, serial dilution count; conditions: for Concentration required to achieve at least 3 log reduction of aerobic bacteria: active, 37° C.
# Description: A sterile salt solution (1.2490 g NaCl, 2.9290 g NaHCO3, 0.1910 g Na2CO3, 0.0060 g Na2SO4, 0.033 g CaCl2, and 0.0590 g MgCl2.6H2O in 1 L water) is contaminated with mixed oil/gas field aerobic bacteria at final bacterial concentrations of ˜10^7 CFU/mL. At day zero, either glutaraldehyde (UCARCIDE™ 250, 50% glutaraldehyde in water, The Dow Chemical Company) or THPS (AQUCAR™ THPS 75, 75% THPS in water, The Dow Chemical Company) is added and the solution mixed well to provide a desired final concentration. The solution is then incubated at 37° C. Bacterial populations are monitored over time using a serial dilution method. In experiments running over seven days, samples are reinoculated at day seven. […]
# [2] = tested on: mixed oil/gas field anaerobic sulfate reducing bacteria; experiment: Biocidal efficacy against mixed oil/gas field anaerobic sulfate reducing bacteria in deaerated salt solution, serial dilution count; conditions: for Concentration required to achieve at lease 3 log bacterial reduction in 1 hr / Concentration required to achieve at least 3 log reduction of anaerobic sulfate reducing bacteria: active; for Concentration required to achieve at lease 3 log bacterial reduction in 1 hr: biocide alone, anaerobic oil/gas field SRB bacteria; for Concentration required to achieve at least 3 log reduction of anaerobic sulfate reducing bacteria: 37° C.
# Description: A sterile salt solution as described in Example 1 is deaerated, then contaminated with mixed oil/gas field anaerobic sulfate reducing bacteria at final bacterial concentrations of ˜10^7 CFU/mL. At time=zero, either glutaraldehyde (UCARCIDE™ 250) or THPS (AQUCAR™ THPS 75) is added and the solution mixed well to provide a desired final concentration. The solutions are incubated at 37° C. in an anaerobic environment (Bactron III anaerobic chamber). Bacterial populations are monitored over time using a serial dilution method. In experiments running over seven days, samples are reinoculated at day seven.
# (§1) The testing protocols described in Examples 1 and 2, respectively, are used for oil/gas field aerobic bacteria and anaerobic sulfate reducing bacteria. For the standard bacterial strains Enterobacter aerogenes ATCC 13048, Salmonella choleraesius ATCC 10708, Pseudomonas aeruginosa ATCC 10145, Staphylococcus aureus ATCC 6538, Klebsiella pneumoniae ATCC 8308, Bacillus subtillus ATCC 8473, Escherichia coli ATCC 11229, and Pseudomonas aeruginosa ATCC 39451, separate experiments are performed as described in Example 1, but using a sterile 0.85% NaCl solution instead of the salt solution. For standard marine bacteria Pseudomonas sp. ATCC 39451, experiments are performed as described in Examples 1 and 2, but at pH 8.0 using artificial sea water (24.6 g NaCl, 0.67 g KCl, 1.36 g CaCl2.2H2O, 6.29 g MgSO4.7H2O, 4.66 g MgCl2.6H2O and 0.18 g NaHCO3 in 1 L water). All data is collected at time=1 hour.
# [3] = tested on: Aerobic bacteria (ATCC bacterial strains, oil/gas field aerobic bacteria, standard marine bacterium); experiment: Concentration for at least 3 log reduction in 1 hr, aerobic bacteria (one value for ATCC strains, oil/gas field aerobic bacteria and standard marine bacterium); conditions: active, biocide alone
# Description: A sterile salt solution (1.2490 g NaCl, 2.9290 g NaHCO3, 0.1910 g Na2CO3, 0.0060 g Na2SO4, 0.033 g CaCl2, and 0.0590 g MgCl2.6H2O in 1 L water) is contaminated with mixed oil/gas field aerobic bacteria at final bacterial concentrations of ˜10^7 CFU/mL. At day zero, either glutaraldehyde (UCARCIDE™ 250, 50% glutaraldehyde in water, The Dow Chemical Company) or THPS (AQUCAR™ THPS 75, 75% THPS in water, The Dow Chemical Company) is added and the solution mixed well to provide a desired final concentration. The solution is then incubated at 37° C. Bacterial populations are monitored over time using a serial dilution method. In experiments running over seven days, samples are reinoculated at day seven.
# as §1, with “ATCC 39451, experiments are performed as described in Examples 1 and 2, but at pH 8.0 using artificial sea water (24.6 g NaCl, 0.67 g KCl, 1.36 g CaCl2.2H2O, 6.29 g MgSO4.7H2O, 4.66 g MgCl2.6H2O and 0.18 g NaHCO3 in 1 L water). All data is collected at time=1 hour.” left out
# [4] = time interval 8 days, reinoculated at day seven
# [5] = time interval 9 days, reinoculated at day seven
Compound,Concentration required to achieve at least 3 log reduction of aerobic bacteria ([1]; time interval 2 hrs) [ppm],Concentration required to achieve at least 3 log reduction of aerobic bacteria ([1]; time interval 4 hrs) [ppm],Concentration required to achieve at least 3 log reduction of aerobic bacteria ([1]; time interval 1 day) [ppm],Concentration required to achieve at least 3 log reduction of aerobic bacteria ([1]; time interval 3 days) [ppm],Concentration required to achieve at least 3 log reduction of aerobic bacteria ([1]; time interval 4 days) [ppm],Concentration required to achieve at least 3 log reduction of aerobic bacteria ([1]; time interval 7 days) [ppm],"Concentration required to achieve at least 3 log reduction of aerobic bacteria [1, 4] [ppm]","Concentration required to achieve at least 3 log reduction of aerobic bacteria [1, 5] [ppm]",Concentration required to achieve at lease 3 log bacterial reduction in 1 hr [2] [ppm],Concentration required to achieve at least 3 log reduction of anaerobic sulfate reducing bacteria ([2]; time interval 2 hrs) [ppm],Concentration required to achieve at least 3 log reduction of anaerobic sulfate reducing bacteria ([2]; time interval 4 hrs) [ppm],Concentration required to achieve at least 3 log reduction of anaerobic sulfate reducing bacteria ([2]; time interval 1 day) [ppm],Concentration required to achieve at least 3 log reduction of anaerobic sulfate reducing bacteria ([2]; time interval 2 days) [ppm],Concentration required to achieve at least 3 log reduction of anaerobic sulfate reducing bacteria ([2]; time interval 3 days) [ppm],Concentration required to achieve at least 3 log reduction of anaerobic sulfate reducing bacteria ([2]; time interval 4 days) [ppm],Concentration required to achieve at least 3 log reduction of anaerobic sulfate reducing bacteria ([2]; time interval 7 days) [ppm],"Concentration required to achieve at least 3 log reduction of anaerobic sulfate reducing bacteria [2, 4] [ppm]","Concentration required to achieve at least 3 log reduction of anaerobic sulfate reducing bacteria [2, 5] [ppm]",Concentration required to achieve at lease 3 log bacterial reduction in 1 hr [3] [ppm],other results
O=CCCCC=O [glutaraldehyde],25.0,25.0,6.3,6.3,6.3,12.5,25.0,25.0,29.67,12.5,12.5,12.5,12.5,25.0,25.0,25.0,25.0,50.0,44.49,"Efficacy against aerobic bacteria, compared in words ([1]; glutaraldehyde versus hydroxymethyl-substituted phosphorus compounds): higher efficacy against aerobic bacteria; Speed of action on anaerobic sulfate reducing bacteria, compared in words ([2]; glutaraldehyde versus hydroxymethyl-substituted compounds): more rapid results"
tetrakis(hydroxymethyl)phosphonium sulfate [THPS],25.0,25.0,12.5,12.5,25.0,25.0,100.0,100.0,44.49,50.0,25.0,25.0,12.5,6.3,6.3,6.3,12.5,25.0,44.49,
